pIC50: −log10 of the molar value.
Assays:
MV-4-11 = assay: cells; conditions: Homo sapiens, MV4-11, 72 h, read-out: In Vitro Cellular IC50 MV-4-11
COLO 205 = assay: cells; conditions: Homo sapiens, COLO 205, 72 h, read-out: In Vitro Cellular IC50 COLO 205
PC-3 = assay: Anti-proliferative assay (cellular IC50), PC-3; conditions: Homo sapiens, PC-3, 72 h, read-out: In Vitro Cellular IC50 PC-3
[1] = molecular target: HDAC (HeLa nuclear extracts); assay: HDAC enzyme assay, HeLa nuclear extracts; conditions: read-out: In Vitro Enzymatic IC50 HDAC (HeLa)
K-562 = assay: Anti-proliferative assay (cellular IC50), K-562; conditions: Homo sapiens, K562, 72 h, read-out: In Vitro Cellular IC50 K-562
HDAC1 = HDAC1 (Homo sapiens, UniProt Q13547); assay: HDAC enzyme assay, recombinant HDAC1
Chain of HDAC1 (Q13547 whole entry): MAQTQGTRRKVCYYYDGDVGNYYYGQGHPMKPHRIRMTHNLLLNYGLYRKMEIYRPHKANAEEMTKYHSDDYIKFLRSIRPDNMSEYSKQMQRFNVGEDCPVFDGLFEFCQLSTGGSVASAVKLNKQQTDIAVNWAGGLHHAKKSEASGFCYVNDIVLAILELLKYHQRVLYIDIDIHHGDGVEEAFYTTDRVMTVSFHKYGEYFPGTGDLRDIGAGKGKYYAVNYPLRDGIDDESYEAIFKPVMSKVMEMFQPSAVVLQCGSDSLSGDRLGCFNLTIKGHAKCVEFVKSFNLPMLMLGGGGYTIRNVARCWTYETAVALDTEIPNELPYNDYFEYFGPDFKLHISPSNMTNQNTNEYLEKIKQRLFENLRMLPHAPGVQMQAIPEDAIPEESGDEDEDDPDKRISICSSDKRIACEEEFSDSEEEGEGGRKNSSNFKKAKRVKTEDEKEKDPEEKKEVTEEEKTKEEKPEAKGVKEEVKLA

MCF7 = assay: Anti-proliferative assay (cellular IC50), MCF7; conditions: Homo sapiens, MCF7, 72 h, read-out: In Vitro Cellular IC50 MCF7
Experimental: Cells were cultivated at 37° C., 5% CO2 in media containing 10% FBS and 2 mM glutamine Cells were routinely monitored with MycoAlert™ PLUS Mycoplasma Detection Kit (Lonza Walkersville, Inc.) to make sure they were mycoplasma free. Antibiotics (100 U/mL of penicillin and 100 μg/mL of streptomycin) were only added to the media used for compound dilution and cells in 96-well assay plates.
For a typical screening experiment, cells (100 μL/well) are inoculated into 96 well microtiter plates at plating densities ranging from 2,000 to 30,000 cells/well depending on the doubling time of individual cell lines and assay linearity. […] Suspension cells are treated with test compounds immediately after cell inoculation.
Test compounds are serially diluted (3-fold or 4-fold, 8-concentration) using the same media and added to the plates (15 to 25 μL/well). After 72 h of cultivation, the plates are assayed for cell cytotoxicity/viability by using the following two methods.
Cells in plates are fixed with cold trichloroacetic acid (TCA) (50% w/v in DI water, 1/4 volume of the medium in each well), and incubated at 4° C. for 1 h (adherent cells) or 2 h (suspension cells). The plates are washed 5 times (tap water×3, DI water×2) and air-dried. SRB solution 0.4% (w/v) in 1% acetic acid is added to each well (60 μL/well) and the plates are incubated at room temperature for 30 min, then washed with 1% acetic acid solution 4 times, and air-dried.
The plates are added CellTiter-Glo® Reagent (95 μL/well) and read the luminescence on a BioTek H4 reader per manufacture's protocol.
The raw data are processed using BioTek's Software Gen5 (v2.03.01) to generate inhibitory IC50 values.

| Compound | pIC50 (MV-4-11) | pIC50 (COLO 205) | pIC50 [1] | further results |
| --- | --- | --- | --- | --- |
| COc1ccc(-c2nc(N3CCOCC3)c3ncn(CCCCC(=O)NO)c3n2)cn1 [compound 58, N-hydroxy-5-(2-(6-methoxypyridin-3-yl)-6-morpholino-9H-purin-9-yl)pentanamide] | 5.70 to 6.30 | 5.00 to 5.70 | 6.00 to 7.00 | pIC50 (K-562): 5.00 to 5.70 |
| CC(C)n1c(NCc2ccc(C(=O)NO)cc2)nc2c(-c3cnc(N)nc3)nc(N3CCOCC3)nc21 [compound 80, 4-(((6-(2-aminopyrimidin-5-yl)-9-isopropyl-2-morpholino-9H-purin-8-yl)amino)methyl)-N-hydroxybenzamide] |  |  |  | pIC50 (HDAC1): 6.00 to 7.00 |
| CC(C)n1cnc2c(-c3cccc(COCC(=O)NO)c3)nc(N3CCOCC3)nc21 [compound 42, N-hydroxy-2-((3-(9-isopropyl-2-morpholino-9H-purin-6-yl)benzyl)oxy)acetamide] |  |  | 6.00 to 7.00 |  |
| CC(C)n1cnc2c(-c3cccc(COCCCCC(=O)NO)c3)nc(N3CCOCC3)nc21 [compound 23, N-hydroxy-5-((3-(9-isopropyl-2-morpholino-9H-purin-6-yl)benzyl)oxy)pentanamide] |  |  | 7.00 to 8.00 | pIC50 (HDAC1): 7.00 to 8.00 |
| CC(C)n1cnc2c(-c3ccc(OCC(=O)NO)cc3)nc(N3CCOCC3)nc21 [compound 33, N-hydroxy-2-(4-(9-isopropyl-2-morpholino-9H-purin-6-yl)phenoxy)acetamide] |  |  | 5.00 to 6.00 |  |
| CC(C)n1cnc2c(-c3ccc(COCCCCC(=O)NO)cc3)nc(N3CCOCC3)nc21 [compound 20, N-hydroxy-5-((4-(9-isopropyl-2-morpholino-9H-purin-6-yl)benzyl)oxy)pentanamide] |  |  | 6.00 to 7.00 |  |
| CC(C)n1cnc2c(-c3ccc(COCCCCCC(=O)NO)cc3)nc(N3CCOCC3)nc21 [compound 21, N-hydroxy-6-((4-(9-isopropyl-2-morpholino-9H-purin-6-yl)benzyl)oxy)hexanamide] |  |  | 6.00 to 7.00 |  |
| CC(C)n1cnc2c(-c3cccc(CN4CCC(C(=O)NO)CC4)c3)nc(N3CCOCC3)nc21 [compound 34, N-hydroxy-1-(3-(9-isopropyl-2-morpholino-9H-purin-6-yl)benzyl)piperidine-4-carboxamide] |  |  | 5.00 to 6.00 |  |
| Cc1c(CN2CCN(C(=O)[C@H](C)O)CC2)sc2c(N3CCOCC3)nc(-c3cnc(N)nc3)nc12 [GDC-0980, reference compound] | < 5.00 | > 6.30 |  | pIC50 (MCF7): 5.00 to 5.70; pIC50 (K-562): 5.00 to 5.70 |
| CC(C)n1cnc2c(-c3ccc(COCC(=O)NO)cc3)nc(N3CCOCC3)nc21 [compound 32, N-hydroxy-2-((4-(9-isopropyl-2-morpholino-9H-purin-6-yl)benzyl)oxy)acetamide] |  |  | 5.00 to 6.00 |  |
| CC(C)n1cnc2c(-c3ccc(OCCCC(=O)NO)cc3)nc(N3CCOCC3)nc21 [compound 13, N-hydroxy-4-(4-(9-isopropyl-2-morpholino-9H-purin-6-yl)phenoxy)butanamide] |  |  | 5.00 to 6.00 |  |
| CC(C)n1cnc2c(-c3cccc(NC(=O)CCCC(=O)NO)c3)nc(N3CCOCC3)nc21 [compound 9, N^1-hydroxy-N^5-(3-(9-isopropyl-2-morpholino-9H-purin-6-yl)phenyl)glutaramide] |  |  | 6.00 to 7.00 |  |
| CC(C)n1cnc2c(-c3cccc(CNCc4ccc(C(=O)NO)cc4)c3)nc(N3CCOCC3)nc21 [compound 35, N-hydroxy-4-(((3-(9-isopropyl-2-morpholino-9H-purin-6-yl)benzyl)amino)methyl)benzamide] |  |  | 6.00 to 7.00 |  |
| CC(C)n1cnc2c(-c3ccc(OCCCCCC(=O)NO)cc3)nc(N3CCOCC3)nc21 [compound 15, N-hydroxy-6-(4-(9-isopropyl-2-morpholino-9H-purin-6-yl)phenoxy)hexanamide] |  |  | 6.00 to 7.00 |  |
| Nc1ccc(-c2nc(N3CCOCC3)c3ncn(CCCCC(=O)NO)c3n2)cn1 [compound 59, 5-(2-(6-aminopyridin-3-yl)-6-morpholino-9H-purin-9-yl)-N-hydroxypentanamide] | 5.70 to 6.30 | < 5.00 | 5.00 to 6.00 | pIC50 (K-562): < 5.00 |
| CC(C)n1cnc2c(-c3cccc(OCCCCCCC(=O)NO)c3)nc(N3CCOCC3)nc21 [compound 12, N-hydroxy-7-(3-(9-isopropyl-2-morpholino-9H-purin-6-yl)phenoxy)heptanamide] |  |  | 7.00 to 8.00 |  |
| CCN(CC)c1nc2c(-c3cnc(N)nc3)nc(N3CCOCC3)nc2n1CCCC(=O)NO [compound 28, 4-(6-(2-aminopyrimidin-5-yl)-8-(diethylamino)-2-morpholino-9H-purin-9-yl)-N-hydroxybutanamide] |  |  | 5.00 to 6.00 | pIC50 (HDAC1): 5.00 to 6.00 |
| CC(C)n1cnc2c(-c3cccc(CNCCCCCC(=O)NO)c3)nc(N3CCOCC3)nc21 [compound 36, N-hydroxy-6-((3-(9-isopropyl-2-morpholino-9H-purin-6-yl)benzyl)amino)hexanamide] |  |  | 7.00 to 8.00 |  |
| CC(C)n1cnc2c(-c3ccc(OCCCCCCC(=O)NO)cc3)nc(N3CCOCC3)nc21 [compound 16, N-hydroxy-7-(4-(9-isopropyl-2-morpholino-9H-purin-6-yl)phenoxy)heptanamide] |  |  | 6.00 to 7.00 |  |
| CC(C)n1cnc2c(-c3cccc(OCCCCCC(=O)NO)c3)nc(N3CCOCC3)nc21 [compound 11, N-hydroxy-6-(3-(9-isopropyl-2-morpholino-9H-purin-6-yl)phenoxy)hexanamide] |  |  | 7.00 to 8.00 |  |
| CC(C)n1cnc2c(-c3cccc(NC(=O)CCCCCCCC(=O)NO)c3)nc(N3CCOCC3)nc21 [compound 8, N^1-hydroxy-N^9-(3-(9-isopropyl-2-morpholino-9H-purin-6-yl)phenyl)nonanediamide] |  |  | 7.00 to 8.00 |  |
| CC(C)n1cnc2c(-c3ccc(COCCCCCCC(=O)NO)cc3)nc(N3CCOCC3)nc21 [compound 22, N-hydroxy-7-((4-(9-isopropyl-2-morpholino-9H-purin-6-yl)benzyl)oxy)heptanamide] |  |  | 5.00 to 6.00 |  |
| CC(C)n1cnc2c(-c3ccc(OCCCCC(=O)NO)cc3)nc(N3CCOCC3)nc21 [compound 14, N-hydroxy-5-(4-(9-isopropyl-2-morpholino-9H-purin-6-yl)phenoxy)pentanamide] |  |  | 6.00 to 7.00 |  |

Second part, led by results:

| pIC50 (MV-4-11) | pIC50 (COLO 205) | pIC50 [1] | Compound | further results |
| --- | --- | --- | --- | --- |
| 5.70 to 6.30 | 5.00 to 5.70 | > 8.00 | O=C(CCCCCCn1cnc2c(N3CCCC3)nc(N3CCCC3)nc21)NO [compound 99, 7-(2,6-di(pyrrolidin-1-yl)-9H-purin-9-yl)-N-hydroxyheptanamide] | pIC50 (PC-3): 5.00 to 5.70 |
| 5.70 to 6.30 | 5.00 to 5.70 | 6.00 to 7.00 | CCn1cnc2c(-c3ccc(F)c(OCCCC(=O)NO)c3)nc(N3CCOCC3)nc21 [compound 68, 4-(5-(9-ethyl-2-morpholino-9H-purin-6-yl)-2-fluorophenoxy)-N-hydroxybutanamide] | pIC50 (PC-3): 5.00 to 5.70 |
| 5.70 to 6.30 | < 5.00 | 6.00 to 7.00 | CCn1c(CN(C)Cc2ccc(/C=C/C(=O)NO)cc2)nc2c(N3CCOCC3)nc(Cl)nc21 [compound 95, (E)-3-(4-((((2-chloro-9-ethyl-6-morpholino-9H-purin-8-yl)methyl)(methyl)amino)methyl)phenyl)-N-hydroxyacrylamide] | pIC50 (K-562): 5.00 to 5.70 |
| 5.70 to 6.30 | 5.00 to 5.70 | 5.00 to 6.00 | CCn1c(CN(C)Cc2ccc(/C=C/C(=O)NO)cc2)nc2c(N3CCOCC3)nc(-c3ccc(OC)nc3)nc21 [compound 93, (E)-3-(4-((((9-ethyl-2-(6-methoxypyridin-3-yl)-6-morpholino-9H-purin-8-yl)methyl)(methyl)amino)methyl)phenyl)-N-hydroxyacrylamide] | pIC50 (PC-3): 5.00 to 5.70; pIC50 (MCF7): 5.00 to 5.70; pIC50 (K-562): 5.00 to 5.70 |
| < 5.00 | < 5.00 | > 8.00 | O=C(CCCCCn1cnc2c(N3CCOCC3)nc(-c3ccc(F)c(OCCO)c3)nc21)NO [compound 65, 6-(2-(4-fluoro-3-(2-hydroxyethoxy)phenyl)-6-morpholino-9H-purin-9-yl)-N-hydroxyhexanamide] | pIC50 (PC-3): < 5.00 |
| 5.70 to 6.30 | 5.00 to 5.70 | 6.00 to 7.00 | CCn1c(CN(C)Cc2ccc(/C=C/C(=O)NO)cc2)nc2c(N3CCOCC3)nc(-c3ccc(NS(C)(=O)=O)cc3)nc21 [compound 94, (E)-3-(4-((((9-ethyl-2-(4-(methylsulfonamido)phenyl)-6-morpholino-9H-purin-8-yl)methyl)(methyl)amino)methyl)phenyl)-N-hydroxyacrylamide] | pIC50 (K-562): 5.00 to 5.70 |
| 5.70 to 6.30 | 5.00 to 5.70 | 7.00 to 8.00 | CC(C)n1cnc2c(-c3ccc(F)c(OCCCC(=O)NO)c3)nc(N3CCCC3)nc21 [compound 63, 4-(2-fluoro-5-(9-isopropyl-2-(pyrrolidin-1-yl)-9H-purin-6-yl)phenoxy)-N-hydroxybutanamide] | pIC50 (PC-3): 5.00 to 5.70 |
| 5.70 to 6.30 | 5.00 to 5.70 | 6.00 to 7.00 | CCCn1cnc2c(-c3ccc(F)c(OCCCC(=O)NO)c3)nc(N3CCCC3)nc21 [compound 66, 4-(2-fluoro-5-(9-propyl-2-(pyrrolidin-1-yl)-9H-purin-6-yl)phenoxy)-N-hydroxybutanamide] | pIC50 (PC-3): 5.00 to 5.70 |
| 5.70 to 6.30 | 5.00 to 5.70 | 6.00 to 7.00 | CCCn1cnc2c(-c3ccc(F)c(OCCCC(=O)NO)c3)nc(N3CCOCC3)nc21 [compound 69, 4-(2-fluoro-5-(2-morpholino-9-propyl-9H-purin-6-yl)phenoxy)-N-hydroxybutanamide] | pIC50 (PC-3): 5.00 to 5.70 |
